Results as given in patent US12275721B2, “Indazole carboxamides as kinase inhibitors” (BRISTOL-MYERS SQUIBB COMPANY, priority 2019, dated 2025).

Columns and labels:
[1] = target: T1, His-GST-TVMV-hRIPK1(1-324) (Homo sapiens, UniProt Q13546); assay: RIPK1 HTRF Binding Assay; settings: HTRF probe displacement, 1 h at rt
T1 construct: 1 nM His-GST-TVMV-hRIPK1(1-324) in FRET Buffer; made in house; host or cells: Spodoptera frugiperda (Sf9) insect cells, baculovirus (Bac-to-Bac)
T1 sequence (Q13546 1-324): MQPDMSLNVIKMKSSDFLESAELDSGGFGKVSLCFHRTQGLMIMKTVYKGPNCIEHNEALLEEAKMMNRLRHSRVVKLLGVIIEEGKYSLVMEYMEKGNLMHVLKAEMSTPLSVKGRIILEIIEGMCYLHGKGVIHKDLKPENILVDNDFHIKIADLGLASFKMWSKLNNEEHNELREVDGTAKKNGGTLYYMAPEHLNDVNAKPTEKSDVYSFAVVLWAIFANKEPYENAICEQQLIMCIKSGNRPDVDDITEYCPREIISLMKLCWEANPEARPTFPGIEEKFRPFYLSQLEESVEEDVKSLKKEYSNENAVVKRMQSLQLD
Method: A solution was prepared containing 0.2 nM Anti GST-Tb (Cisbio, 61GSTTLB), 90.6 nM probe and 1 nM His-GST-TVMV-hRIPK1(1-324) in FRET Buffer (20 mM HEPES, 10 mM MgCl2, 0.015% Brij-35, 4 mM DTT, 0.05 mg/mL BSA). Using Formulatrix Tempest, the detection antibody/enzyme/probe solution ([…]) was dispensed into wells of a 1536 plate (Black Low Binding Polystyrene 1536 Plate (Corning, 3724)) containing 10 nL of compounds of interest at appropriate concentration in DMSO. The plate was incubated at rt for 1 h. FRET was measured using the EnVision plate reader (Excitation: 340 nm, Emission: 520 nm/[…]). Total signal (0% inhibition) was calculated from wells containing 10 nL DMSO only.
Cloning and Baculovirus Expression of RIPK1 Construct
The coding region of human RIPK1(1-324) flanked by NdeI site at 5′ end and stop codon TGA and XhoI site at 3′ end was codon optimized and gene synthesized at GenScript USA Inc. (Piscataway, NJ) and subcloned into a modified pFastBac1 vector (Invitrogen, Carlsbad, CA) with N-terminal His-GST-TVMV tag, to generate His-GST TVMV-hRIPK1(1-324)-pFB. The fidelity of the synthetic fragment was confirmed by sequencing. Baculovirus was generated for the construct using the Bac-to-Bac baculovirus expression system (Invitrogen) according to the manufacturer's protocol. Briefly, recombinant bacmid was isolated from transformed DH10Bac E. coli competent cells 20 (Invitrogen) and used to transfect Spodoptera frugiperda (Sf9) insect cells (Invitrogen). Baculovirus was harvested 72 hours post transfection and a virus stock was prepared by infecting fresh Sf9 cells at a 1/1000 (v/v) ratio for 66 hours. For large scale protein production, Sf9 cells (Expression System, Davis, CA) grown in ESF921 insect medium (Expression System) at 2×10^6 cells/ml were infected with virus stock at a 1/100 (v/v) ratio for 66 hours. The production was carried out either at a 10 L scale in a 22 L cellbag (GE Healthcare Bioscience, Pittsburgh, PA) or at a 20 L scale in a 50 L cellbag using WAVE-Bioreactor System 20/50 (GE Healthcare Bioscience). The infected cells were harvested by centrifugation at 2000 rpm for 20 min at 4° C. in a SORVALL® RC12BP centrifuge. The cell pellets was stored at −70° C. before protein was purified.
Purification of His-GST-TVMV-hRIPK1(1-324)
RIPK1 containing cell paste was resuspended in 50 mM Tris pH 7.5, 150 mM NaCl, 10 mM imidazole, 5% glycerol, 5 mM MgSO4, 1 mM TCEP, 25 U/ml Benzonase, and Complete Protease Inhibitor tablets (1/50 ml, Roche Diagnostics, Indianapolis, IN). The cells were lysed by nitrogen cavitation using an unstirred pressure vessel @ 525 PSI (Parr Instrument Company, Moline, IL). The suspension was clarified by centrifugation at 136,000×g for 40 min, at 4° C. The lysate was decanted from the pellet and passed through a 5 ml NiNTA Superflow cartridge (Qiagen, Valencia, CA) using an AKTA Pure (GE Healthcare). Column was eluted with 10 CV linear gradient into 50 mM Tris 7.5, 150 mM NaCl, 500 mM imidazole, 5% glycerol, 1 mM TCEP. Peak fractions were pooled and loaded directly onto 5 ml GSTrap 4B column (GE Healthcare). Column was washed with 50 mM Tris 7.0, 150 mM NaCl, […], 1 mM DTT and eluted in 10 CV linear gradient into 50 mM Tris 8.0, 150 mM NaCl, 20 mM reduced glutathione, 50% glycerol, 1 mM DTT. Fractions identified by SDS-PAGE as containing RIPK1 were pooled and concentrated using 30 kDa MWCO spin concentrators (Amicon Ultra-15, Millipore, Billerica, MA) and loaded onto a HiLoad 26/600 Superdex 200 column (GE Healthcare) equilibrated in 25 mM Tris 7.5, 150 mM NaCl, 2 mM TCEP, […]. The RTPK1 protein eluted as a dimer off the SEC column. The yield was ˜8 mg/L with a purity […] as determined by Coomassie stain SDS-PAGE gel analysis. […] Protein was aliquoted and stored at −80° C. Using these assays, the IC50 values of the following compounds were determined.

[2] = tested on: MLKL phosphorylation in HT29-L23 human colorectal adenocarcinoma cells; assay: MLKL Phosphorylation High-Content Assay; assay type: cell-based; settings: Homo sapiens, necroptosis induced with TNFα, SMAC mimetic and Z-VAD, 6 h, read-out: pMLKL (IC50)
Method: MLKL Phosphorylation High-Content Assay
HT29-L23 human colorectal adenocarcinoma cells were maintained in RPMI 1640 medium containing 10% heat-inactivated FBS, 1% Penicillin-Streptomycin and 10 mM HEPES. Cells were seeded at 2,000 cells/well in 384 well tissue culture-treated microplates (Greiner #781090-3B) and incubated at 37° C. (5% CO2/95% O2) for 2 d. On the day of the assay, the cells were treated with test compounds at final concentrations of 6.25 to 0.106 μM for 30 min at 37° C. (5% CO2/95% O2). Necroptopsis was induced using a mixture of human TNFα (35 ng/mL) (Peprotech #300-01A), SMAC mimetic (from US 2015/0322111 A1) (700 nM) and Z-VAD (140 nM) (BD pharmingen #51-6936). Following 6 h incubation at 37° C. (5% CO2/95% O2), the cells were fixed with 4% formaldehyde (ACROS 11969-0010) for 15 min at rt, then permeabilized with phosphate buffered saline (PBS) containing 0.2% Triton-X-100 for 10 min. MLKL phosphorylation was detected using anti-MLKL (phospho S358) antibody (Abcam #ab187091) (1:1000 dilution in Blocking Buffer [PBS supplemented with 0.1% BSA]) with ON incubation at 4° C. After washing three times in PBS, goat anti-rabbit Alexa-488 (1:1000 dilution) (Life Technologies, A1 1008) and Hoechst 33342 (Life Technologies, H3570) (1:2000 dilution) in Blocking Buffer were added for 1 h at rt. Following another three cycles of washes in PBS, the microplates were sealed, and cellular images were acquired in the Cellomics ArrayScan VTI high-content imager equipped with an X1 camera. Fluorescent images were taken using a 10× objective and the 386-23 BGRFRN_BGRFRN and 485-20 BGRFRN_BGRFRN filter sets, for nuclei and MLKL phosphorylation, respectively. The image sets were analyzed using the Compartmental Analysis Bioapplication software (Cellomics). The level of MLKL phosphorylation was quantified as MEAN_CircRingAvglntenRatio. The maximal inhibitory response was defined by the activity induced by Necls (CAS #: 852391-15-2, 6.25 μm). The IC50 value was defined as the concentration of compound that produces 50% of the maximal inhibition. The data were fitted using the 4-parameter logistic equation to calculate the IC50 and Ymax values.

Compound | IC50 [1] | IC50 [2]
CNC(=O)c1n[nH]c2cc(-c3nc(C(=O)NCc4cc(OC(F)(F)F)ccc4F)cs3)ccc12 [Example 20, N-(2-fluoro-5-(trifluoromethoxy)benzyl)-2-(3-(methylcarbamoyl)-1H-indazol-6-yl)thiazole-4-carboxamide] | 400 nM | 810 nM
CNC(=O)c1n[nH]c2cc(-c3nc(C)c(C(=O)NCC[C@H](O)c4ccc(Cl)cc4)n3C)ccc12 [Example 29, (S)-6-(5-((3-(4-chlorophenyl)-3-hydroxypropyl)carbamoyl)-1,4-dimethyl-1H-imidazol-2-yl)-N-methyl-1H-indazole-3-carboxamide] | 1900 nM | 3300 nM
CNC(=O)c1n[nH]c2cc(-c3nc(C(=O)NCC[C@H](O)c4ccc(Cl)cc4)cs3)ccc12 [Example 23, (S)-N-(3-(4-chlorophenyl)-3-hydroxypropyl)-2-(3-(methylcarbamoyl)-1H-indazol-6-yl)thiazole-4-carboxamide] | 120 nM | 1600 nM
CNC(=O)c1n[nH]c2cc(-c3csc(C(=O)NCCC(C)c4ccccc4)c3)ccc12 (stereo not shown) [Example 2, N-methyl-6-(5-((3-phenylbutyl)carbamoyl)thiophen-3-yl)-1H-indazole-3-carboxamide] | 6 nM | 8.2 nM
CNC(=O)c1n[nH]c2cc(-c3nc(C(=O)NCC[C@H](O)c4ccc(Cl)cc4)c(C)n3C)ccc12 [Example 34, (S)-6-(4-((3-(4-chlorophenyl)-3-hydroxypropyl)carbamoyl)-1,5-dimethyl-1H-imidazol-2-yl)-N-methyl-1H-indazole-3-carboxamide] | 760 nM | 1700 nM
CNC(=O)c1n[nH]c2cc(-c3nc(C(=O)NCCC(C)c4ccccc4)cs3)ccc12 (stereo not shown) [Example 21, 2-(3-(methylcarbamoyl)-1H-indazol-6-yl)-N-(3-phenylbutyl)thiazole-4-carboxamide] | 170 nM | 810 nM
CC(C)NC(=O)c1n[nH]c2cc(-c3ccc(C(=O)NCC[C@H](O)c4ccc(Cl)cc4)s3)ccc12 [Example 9, (S)-6-(5-((3-(4-chlorophenyl)-3-hydroxypropyl)carbamoyl)thiophen-2-yl)-N-isopropyl-1H-indazole-3-carboxamide] | – | 500 nM
CNC(=O)c1n[nH]c2cc(-c3nc(C)c(C(=O)NCC[C@H](O)c4ccc(Cl)cc4)s3)ccc12 [Example 17, (S)-N-(3-(4-chlorophenyl)-3-hydroxypropyl)-4-methyl-2-(3-(methylcarbamoyl)-1H-indazol-6-yl)thiazole-5-carboxamide] | 180 nM | 340 nM
CNC(=O)c1n[nH]c2cc(-c3ncc(C(=O)NCCC(C)c4ccccc4)s3)ccc12 (stereo not shown) [Example 24, 2-(3-(methylcarbamoyl)-1H-indazol-6-yl)-N-(3-phenylbutyl)thiazole-5-carboxamide] | 280 nM | 700 nM
CNC(=O)c1n[nH]c2cc(-c3ccc(C(=O)NCC[C@H](O)c4ccc(Cl)cc4)s3)ccc12 [Example 8, (S)-6-(5-((3-(4-chlorophenyl)-3-hydroxypropyl)carbamoyl)thiophen-2-yl)-N-methyl-1H-indazole-3-carboxamide] | 220 nM | 6300 nM
CNC(=O)c1n[nH]c2cc(-c3nc(C)c(C(=O)NCCC(C)c4ccccc4)s3)ccc12 (stereo not shown) [Example 15, 4-methyl-2-(3-(methylcarbamoyl)-1H-indazol-6-yl)-N-(3-phenylbutyl)thiazole-5-carboxamide] | 8.3 nM | 44 nM
CNC(=O)c1n[nH]c2cc(-c3nc(C(=O)NCC[C@@H](O)c4ccc(Cl)cc4)c(C)n3C)ccc12 [Example 33, (R)-6-(4-((3-(4-chlorophenyl)-3-hydroxypropyl)carbamoyl)-1,5-dimethyl-1H-imidazol-2-yl)-N-methyl-1H-indazole-3-carboxamide] | 570 nM | 2200 nM
CNC(=O)c1n[nH]c2cc(-c3nc(C)c(C(=O)NCc4cc(OC(F)(F)F)ccc4F)n3C)ccc12 [Example 26, 6-(5-((2-fluoro-5-(trifluoromethoxy)benzyl)carbamoyl)-1,4-dimethyl-1H-imidazol-2-yl)-N-methyl-1H-indazole-3-carboxamide] | 30 nM | 49 nM
CNC(=O)c1n[nH]c2cc(-c3nc(C)c(C(=O)NCc4cc(OC(F)(F)F)ccc4F)s3)ccc12 [Example 14, N-(2-fluoro-5-(trifluoromethoxy)benzyl)-4-methyl-2-(3-(methylcarbamoyl)-1H-indazol-6-yl)thiazole-5-carboxamide] | 7 nM | 8 nM
CNC(=O)c1n[nH]c2cc(-c3cc(C(=O)NC(C)CCc4ccccc4)n(C)n3)ccc12 (racemic) [Example 36, N-methyl-6-(1-methyl-5-((4-phenylbutan-2-yl)carbamoyl)-1H-pyrazol-3-yl)-1H-indazole-3-carboxamide] | – | 600 nM
